“And” between values parts separate entries of the source, which are not always exact repeats. Equal values may be shown once. Read-outs that look alike come from different tables or passages of the source.
Key:
Format in all cases: cell-based
[1] = target: γ-secretase complex (Homo sapiens, UniProt P49768); assay: APP-C99 counter assay (GSI reporter assay); set-up: AUC APP: scale not given here; conditions: for remaining activity at 10 µM / remaining activity at 25 µM / remaining activity at […] / activity at 10 µM: 24 h; for remaining activity at 10 µM / remaining activity at 25 µM / remaining activity at […]: APP-C99 counter assay, read-out: 3p-DR in % of DMSO counter; for remaining activity at […]: 1,25µM; for AUC APP: area under the 14-point dose-response curve, replicates averaged; for AUC 9p APP-counter assay / AUC. 14p APP-counter assay: AUCs averaged when replicates available; for APP assay: overview in comparison to compound C, Supplemental Fig. 9; for activity at 10 µM: sheet conf vs counter 10 µM, read-out: Counter screen (Hek APP-C99)
Procedure, shortened: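 γ-secretase activity reported via APP cleavage driving firefly luciferase, normalized to renilla. After 24 h transfection then 24 h compound exposure, signals were read (0.1 s integration). Triplicate dose–responses fitted by variable-slope four-parameter model for IC50; area under curve also derived.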

[2] = system: C2C12 cells; assay: C2C12 myogenic assay; set-up: key to myogenic assay: + indicates that the compound had an effect; -: − indicates that there was no significant effect in the respective assay; key to mean fusion index: ratio of nuclei fused per area to total nuclei in field; conditions: for myogenic assay: summary Fig. 8E; for MYH4 (MFI) / fusion index, % of DMSO control: Fig. 5, equals mean of the two '% of control' values of the 4th table; for mean MFI / ratio MFI/MBI: MYH4; for ratio MFI/MBI / ratio nuclei %: single images; for myogenic diff.: overview in comparison to compound C, Supplemental Fig. 9
Description: To corroborate their status as Notch inhibitors, we tested four of the five compounds (A, C, D, E) in an orthogonal assay for Notch function. Notch signalling plays an important role in myogenic differentiation, and blocking Notch signalling promotes myogenic differentiation in the myoblast cell line C2C12[27] (Fig. 5A). C2C12 cells can be maintained as myoblasts but upon serum starvation spontaneously differentiate to MYH4-positive multinucleated myotubes, a process which is accelerated by Notch blockade.
8000 C2C12 cells were seeded on gelatin (0.1%, Sigma-Aldrich, cat #G2500) coated cover slides (BD Bioscience) and cultivated in proliferation medium. For gelatin coating, 8-well cover slide chambers (BD Bioscience) were incubated for 60 min with 0.1% gelatin in PBS. The remaining liquid was aspirated, and gelatin was allowed to dry for 24 h. Cover slides were stored at 4 °C until use. Upon reaching 85% confluence cell culture medium was exchanged to differentiation medium to enhance differentiation into myocytes/myotubes. Cells were then treated with 10 µM of the respective compound for five days and DMSO-treated cells served as a base-line control. Next, cells were washed with 1 × cold PBS (ThermoFisher, cat #10010023) fixed with 4% paraformaldehyde (PFA, Sigma-Aldrich, cat #1.00496) in PBS for 10 min at room temperature and washed again with 1 × PBS. Fixed cells were either stored at 4 °C in PBS or directly processed for immunocytochemistry staining: For immunocytochemistry, cells were permeabilized for 10 min in 0.1% TritonX-100 / PBS, then washed in PBS and unspecific bindings sites were blocked in protein free blocking solution (DAKO, cat # × 0909) for 30 min at room temperature, followed by two times washing in PBS. Then, cells were incubated with primary antibody MYH4 (ThermoFisher) in blocking solution and 0.1% TritonX-100 in PBS for 1 h at room temperature. Next, cells were washed three times in PBS and incubated with secondary Alexa fluorophore coupled antibody (Invitrogen) in a 1:400 dilution. Labeling of F-actin filaments was conducted by phalloidin-TRITC (Sigma-Aldrich, cat # P1951) in a 1:2500 dilution. Cells were washed three times in PBS and incubated with DAPI (BD Bioscience cat # 564907) for 5 min at room temperature to stain DNA/nuclei. Finally, slides were fixed with mounting medium (ProLong Antifade mounting medium, ThermoFisher, cat #P36934). Bright field and immunocytochemistry images were taken using the SP8 LSM (Leica) at different magnifications and images were recorded as Z-stacks. Images were processed using the FijI (ImageJ) software. As controls, wells with and without differentiation medium were also stained to set the baseline and contrast the differences and stainings of cells with only secondary antibodies were used as negative controls to assess cross-reactivity and background staining. For calculating the MYH4 median fluorescence intensity (MFI) images have been converted into 8-bit greyscale and a standard color threshold was applied (ImageJ). Next, MFI signals per area were measured using ImageJ and divided by the median background intensity (MBI). The nuclei fusion index was calculated as the ratio of nuclei fused per area divided by the total number of nuclei in the field. A minimum of three images has been recorded for the calculations, and two replicate experiments were conducted. For calculations of MFI and fusion index see Supplemental Table 5.

[3] = system: MDA-MB-231 cells; assay: Three dose response gene expression analysis (qRT-PCR); conditions: 0.1, 1 and 10 µM, 24 h
Method: (§1) Total RNA from cell lines was isolated using the RNeasy Mini kit (cat #74104, Qiagen), according to the manufacturer’s instructions. qRT-PCR was performed as described elsewhere[51] with some minor modifications: RNA was reverse transcribed to cDNA using iScript Reverse Transcription Supermix (cat # 1708841, Bio-rad). cDNA was then diluted 1:5 in nuclease free H20. qRT-PCR was performed on a C1000 Touch thermal cycler (Bio-rad) and gene expression was detected with SsoAdvanced Universal SYBR Green Supermix (cat # 1725274, Bio-rad). Gene expression was determined by normalizing to GAPDH mRNA expression levels and fold expression change was calculated using the ΔΔCT method (ΔΔCT = ΔCt sample − Δct control). Primers used in qPCR are shown in Supplemental Table 9.
(§2) Adherent breast cancer cells were seeded in 24-well cell culture plates (ThermoFisher, Nunc, Delta surface, cat #144530) and T-ALL cells growing in suspension (Jurkat, RPMI-8402) were seeded in non-adherent 24-well plates (ThermoFisher, Nunc, cat […]). 60.000 cells were seeded and treated with 0.1, 1 and 10 µM of each compound. […] Cells were harvested 24 h post treatment and RNA isolation and gene expression analysis (qRT-PCR) was performed as described above.

[4] = system: T-ALL cells (Jurkat, RPMI-8402); assay: as above; conditions: 0.1, 1 and 10 µM, 24 h; for HES1 and c-MYC expression: T-ALL cells; for c-MYC expression: T-ALL cell lines
Method: as §1, §2

[5] = 14p APP assay DR, Notch inhibitor controls, no bottom constraint named
[6] = 14p APP assay DR, bottom constrained to Emax of positive control LY-411575
[7] = 10 µM, five days, DMSO ctrl = 100, experiments #1 and #2
[8] = 10 µM, five days, experiments #1 and #2
[9] = 10 µM, five days, experiments #1 and #2, listed as GSI

Row | Structure (SMILES) | remaining activity at 10 µM [1] [%] | remaining activity at 25 µM [1] [%] | remaining activity at […] [1] [%] | AUC APP [1] | myogenic assay [2] | HES4 expression [3] | transcript levels of the Notch ligand Jagged1 [3] | HES1 and c-MYC expression [4] | Hill-Slope 9p APP counter assay averaged ([1]; 9p dose response) | AUC 9p APP-counter assay ([1]; 9p dose response) | AUC. 14p APP-counter assay ([1]; 14p dose response) | APP assay [1] | Hill-slope [1, 6] | expression of the differentiation marker MYH4 ([2]; 10 µM, five days) | mean MFI in % of control [2, 7] | MYH4 (MFI) ([2]; 10 µM, five days) | fusion index, % of DMSO control ([2]; 10 µM, five days) | mean MFI [2, 8] | mean fusion index [2, 8] | ratio nuclei % [2, 8] | other results
1 | Cc1ccc2[nH]c3c(c2c1)CCOC31CCN(Cc2ccccc2-c2ccccc2)CC1 [compound B] | 113 | 149 | 100 | 643.8 | - | reduced | reduced | dose-dependent downregulation |  |  |  |  |  |  |  |  |  |  |  |  | 
2 | C[C@H](NC(=O)Cc1cc(F)cc(F)c1)C(=O)N[C@H](C(=O)OC(C)(C)C)c1ccccc1 [DAPT, reference compound] |  |  |  | 580.4 |  |  |  |  | -2.8 | 3.64E+02 | 5.80E+02 | higher potency |  |  |  |  |  |  |  |  | IC50 ([1]; 9p dose response, averaged, read-out: 9p APP counter assay averaged IC50s): 2.5 µM; 9p APP counter assay averaged IC50s (log) ([1]; 9p dose response, log10 of averaged IC50): -5.6; IC50 ([1]; 9p dose response, read-out: approximated IC50s 9p APP counter assay): 2.5 µM; IC50 ([1]; 14-point, unit inferred, some fits outside of tested concentration range, read-out: approximated IC50s 14p APP-counter assay): 0.4 µM; curve fit information [1, 5]: IC50 indeterminate; IC50 ([1]; 14p APP assay DR, Notch inhibitor controls, no bottom constraint named, read-out: approximated IC50): 5.2 µM; IC50 ([1]; 14p dose response, single replicates, read-out: approximated IC50s 14p APP counter assay averaged): 5.2 µM; IC50 ([1]; 14p dose response, averaged over replicates, read-out: 14p APP counter assay averaged IC50s): 5.2 µM
3 | CCc1c(C(=O)N(C)Cc2cnn(C(C)C)c2)[nH]c2ccccc12 [compound A] | 71.4 | 62.2 | 75.7 | 658.8 | + | reduced | reduced |  |  |  |  |  | -1.6 | elevated expression | 469.2 % of control | 476.6 | 210.8 | 7.4 and 5.9 | 4.1 and 7.3 | 2.9% and 4.4% and 7.7% and 8.1% and 6.0% and 5.0% | effect in the APP assay ([1]; 14-point dose-response, Supplemental Fig. 4J): showed an inhibitory effect at high concentrations; Hill-slope ([1]; 14p APP assay DR, bottom constrained to Emax of positive control CB-103): -1.6; activity at 10 µM [1]: 71.3%; ratio MFI/MBI [2, 8]: 6.1 and 6.4 and 7.3 and 7.5 and 5.2; activity at 10 µM ([2]; Mus musculus, C2C12, 120 h, 10 µM, five days, DMSO ctrl = 100, experiments #1 and #2, read-out: mean MFI in % of control): 484%; HES1 expression [3]: downregulated
4 | CC(C)(C)c1ccc(Oc2ccc(N)cn2)cc1 [CB-103, reference compound] |  |  |  | 548.4 |  |  |  |  | -2.0 | 3.16E+02 | 5.48E+02 | weak potency |  | increased MYH4 levels, although not reaching statistical significance | 378.0 % of control and 227.3 % of control |  |  | 3.6 and 4.6 | 5.7 and 3.1 | 5.0% and 6.3% and 5.7% and 3.1% | curve fit information [1, 5]: IC50 indeterminate; myogenic diff. [2]: no; c-MYC expression [3]: trend towards upregulation; c-MYC expression [4]: reduced
5 | CC(C)(C(=O)NCC(F)(F)C(F)(F)F)C(=O)N[C@@H]1C(=O)Nc2ccccc2-c2ccccc21 [RO4929097, reference compound] |  |  |  | 527.4 |  |  |  |  | -1.5 | 2.88E+02 | 5.27E+02 | higher potency |  | elevated expression |  |  |  |  |  |  | mean MFI in % of control ([2]; 10 µM, five days, DMSO ctrl = 100, experiments #1 and #2, listed as GSI): 296.5 % of control and 351.1 % of control; mean MFI [2, 9]: 5.5 and 3.6; mean fusion index [2, 9]: 6.7 and 4.2; ratio nuclei % [2, 9]: 6.3% and 6.4% and 7.6% and 4.9% and 3.4%; myogenic diff. [2]: yes; c-MYC expression [3]: did not reduce; c-MYC expression [4]: consistently reduced
6 | COc1cccc(CNc2ccc(N3CCCCC3)cc2)c1OCc1cccs1 [compound C] | 150 | 152 | 157 | 731.3 | + | upregulated |  | dose-dependent downregulation |  |  |  |  | 0.0377 | elevated expression | 343.9 % of control and 318.1 % of control | 331.0 | 268.7 | 4.2 | 5.3 | 3.3% and 7.3% | activity at 10 µM [1]: 150%; ratio MFI/MBI [2, 8]: 4.0 and 4.4; myogenic diff. [2]: yes; c-MYC expression [3]: downregulation
7 | Cc1nn(-c2nc3ccccc3s2)c(O)c1C1OC(=O)c2ccccc21 (stereo not drawn) [compound E] | 80.7 | 81.7 | 83.7 | 684.1 | + |  | reduced | dose-dependent downregulation |  |  |  |  | -0.00246 | elevated expression | 561.7 % of control and 394.0 % of control | 477.8 | 290.1 | 6.9 and 6.2 | 6.2 and 7.6 | 5.9% and 6.4% and 6.2% and 7.9% and 6.8% and 8.0% | ratio MFI/MBI [2, 8]: 6.3 and 6.7 and 7.6 and 5.1 and 6.8; HES1 expression [3]: downregulated
